Laboratory results as given in US20260053861A1, “CELL COMPOSITIONS AND METHODS OF USING THE SAME” (THE REGENTS OF THE UNIVERSITY OF CALIFORNIA, priority 2022, published 2026).
Structures can show the parent of a compound that is named as a salt. Non-standard residues stand in square brackets, D forms with d. Residues, ends and D or L forms follow the SMILES beside them. *: point of attachment. Sta = CC(C)C[C@H](N)[C@@H](O)CC(=O)O; Isovaleryl = CC(C)CC(=O)*

test system: hPSC-SCs; conditions: not given

Compared with CCCCc1ccc2[nH]c(NC(=O)OC)nc2c1 [Parbendazole], COc1cc(/C=C/C(=O)N2CCC=CC2=O)cc(OC)c1OC [Piperlongumine] is lower in z.score.t: −1.543 for the first, −2.024 for the second.

First: C[N+]1(CCCCC[N+]2(C)CCCC2)CCCC1.O=C([O-])C(O)C(O)C(=O)O.O=C([O-])C(O)C(O)C(=O)O [Pentolinium bitartrate]
Second: CC(C)CC(=O)N[C@H](C(=O)N[C@H](C(=O)N[C@@H](CC(C)C)[C@@H](O)CC(=O)N[C@@H](C)C(=O)N[C@@H](CC(C)C)[C@@H](O)CC(=O)O)C(C)C)C(C)C [Pepstatin A] (Isovaleryl-VV[Sta]A[Sta]-OH)
The z.score.t of the first is higher: 0.2038 for the first, −1.319 for the second.

Compared with CC(COc1ccccc1)N(CCCl)Cc1ccccc1 (stereo not shown) [Phenoxybenzamine hydrochloride], CCN1CCCC(OC(=O)C(c2ccccc2)c2ccccc2)C1 (stereo not shown) [Piperidolate hydrochloride] is lower in z.score.t: 0.03421 for the first, −1.025 for the second.

First: CC(N)C(O)c1ccccc1 (stereo not shown) [Phenylpropanolamine hydrochloride]
Second: C[n+]1ccccc1/C=N/O [Pralidoxime chloride]
The z.score.t of the first is lower: −0.8304 for the first, −0.411 for the second.

Going from C=C(C)[C@@H]1[C@H]2OC(=O)[C@@H]1[C@]1(O)C[C@H]3O[C@]34C(=O)O[C@H]2[C@]14C [Picrotoxinin] to COc1cc([C@@H]2c3cc4c(cc3[C@H](O)[C@H]3COC(=O)[C@H]23)OCO4)cc(OC)c1OC [Podophyllotoxin], the z.score.t falls from 1.281 to −2.152.

same assay, conditions: HTS viability of hPSC-SCs in the presence of 30 mM glucose; Prestwick library; Table S4

Going from Cc1cc(C(C)(C)C)c(O)c(C)c1CC1=NCCN1 [Oxymetazoline hydrochloride] to Cc1ccc(N(CC2=NCCN2)c2cccc(O)c2)cc1 [Phentolamine hydrochloride], the z.score.t rises from −0.7524 to −0.1241.

Going from CCCCC1C(=O)N(c2ccccc2)N(c2ccc(O)cc2)C1=O (stereo not shown) [Oxyphenbutazone] to O=C1c2ccccc2C(=O)C1c1ccccc1 [Phenindione], the z.score.t rises from −0.8111 to 0.7312.

First: CN(C)[C@@H]1C(O)=C(C(N)=O)C(=O)[C@@]2(O)C(O)=C3C(=O)c4c(O)cccc4[C@@](C)(O)[C@H]3[C@H](O)[C@@H]12 [Oxytetracycline dihydrate]
Second: CC(Oc1ccccc1)C(=O)N[C@@H]1C(=O)N2[C@@H]1SC(C)(C)[C@@H]2C(=O)O (stereo partly shown) [Phenethicillin potassium salt]
The z.score.t of the first is lower: −0.09426 for the first, 0.7158 for the second.

Going from O=C(O)/C=C/c1ccc(Cn2ccnc2)cc1 [Ozagrel hydrochloride] to CCOc1ccc(NC(C)=O)cc1 [Phenacetin], the z.score.t rises from −1.148 to 0.8023.

Going from CC(=O)O[C@H]1C(=O)[C@@]2(C)[C@H]([C@H](OC(=O)c3ccccc3)[C@]3(O)C[C@H](OC(=O)[C@H](O)[C@@H](NC(=O)c4ccccc4)c4ccccc4)C(C)=C1C3(C)C)[C@]1(OC(C)=O)CO[C@@H]1C[C@@H]2O [Paclitaxel] to CCN1CCN(C(=O)N[C@@H](C(=O)N[C@@H]2C(=O)N3[C@@H]2SC(C)(C)[C@@H]3C(=O)O)c2ccccc2)C(=O)C1=O [Piperacillin sodium salt], the z.score.t rises from −1.418 to 0.8465.

Compared with COc1cc2c(cc1OC)-c1cc3ccc(OC)c(OC)c3c[n+]1CC2 [Palmatine chloride], COc1ccc(Cc2nccc3cc(OC)c(OC)cc23)cc1OC [Papaverine hydrochloride] is lower in z.score.t: 0.5822 for the first, 0.1556 for the second.

First: CC(=O)O[C@H]1C[C@@H]2CC[C@@H]3[C@H](CC[C@@]4(C)[C@H]3C[C@H]([N+]3(C)CCCCC3)[C@@H]4OC(C)=O)[C@@]2(C)C[C@@H]1[N+]1(C)CCCCC1 [Pancuronium bromide]
Second: CC(=O)[C@H]1CC[C@H]2[C@@H]3CC=C4C[C@@H](O)CC[C@]4(C)[C@H]3CC[C@]12C [Pregnenolone]
The z.score.t of the first is higher: 0.1543 for the first, −0.6864 for the second.

Going from CC(C)(CO)[C@@H](O)C(=O)NCCCO [Panthenol (D)] to CC(C)(CO)[C@@H](O)C(=O)NCCC(=O)O [Pantothenic acid calcium salt monohydrate], the z.score.t falls from 0.6517 to −0.9817.

First: C#CCN(C)Cc1ccccc1 [Pargyline hydrochloride]
Second: NNCCc1ccccc1 [Phenelzine sulfate]
The z.score.t of the first is lower: 0.7789 for the first, 0.852 for the second.

Compared with NC[C@@H]1O[C@H](O[C@H]2[C@@H](O)[C@H](O[C@@H]3[C@@H](O)[C@H](N)C[C@H](N)[C@H]3O[C@H]3O[C@H](CO)[C@@H](O)[C@H](O)[C@H]3N)O[C@@H]2CO)[C@H](N)[C@@H](O)[C@@H]1O [Paromomycin sulfate], CCOC(=O)O[C@]1(C(=O)COC(=O)CC)CC[C@H]2[C@@H]3CCC4=CC(=O)C=C[C@]4(C)[C@H]3[C@@H](O)C[C@@]21C [Prednicarbate] is higher in z.score.t: −1.074 for the first, −0.7266 for the second.

Compared with Fc1ccc([C@@H]2CCNC[C@H]2COc2ccc3c(c2)OCO3)cc1 [Paroxetine Hydrochloride], c1cnc(N2CCN(Cc3ccc4c(c3)OCO4)CC2)nc1 [Piribedil hydrochloride] is lower in z.score.t: −1.138 for the first, −1.291 for the second.

First: CN1C(C)(C)CCCC1(C)C [Pempidine tartrate]
Second: CC(C)(C)C(=O)OCOC(=O)[C@@H]1N2C(=O)[C@@H](/N=C/N3CCCCCC3)[C@H]2SC1(C)C [Pivmecillinam hydrochloride]
The z.score.t of the first is lower: −0.5583 for the first, 0.0827 for the second.

First: CC(C)(C)NC[C@H](O)COc1ccccc1C1CCCC1 [Penbutolol sulfate]
Second: CC(C)NCC(O)COc1cccc2[nH]ccc12 (stereo not shown) [Pindolol]
The z.score.t of the first is lower: −0.9376 for the first, 0.2038 for the second.

Compared with N=C(N)c1ccc(OCCCCCOc2ccc(C(=N)N)cc2)cc1 [Pentamidine isethionate], CCCCOc1ccc(OCCCN2CCOCC2)cc1 [Pramoxine hydrochloride] is lower in z.score.t: −0.8129 for the first, −1.058 for the second.

First: O=C(O)CN(CCN(CC(=O)O)CC(=O)O)CCN(CC(=O)O)CC(=O)O [Pentetic acid]
Second: CCCN(CCC)S(=O)(=O)c1ccc(C(=O)O)cc1 [Probenecid]
The z.score.t of the first is lower: −0.3461 for the first, −0.3319 for the second.

First: CC(=O)CCCCn1c(=O)c2c(ncn2C)n(C)c1=O [Pentoxifylline]
Second: CC[C@@H]1C(=O)OC[C@@H]1Cc1cncn1C [Pilocarpine nitrate]
The z.score.t of the first is lower: 1.045 for the first, 1.139 for the second.

First: C1CCc2nnnn2CC1 [Pentylenetetrazole]
Second: NC(=O)CN1CCCC1=O [Piracetam]
The z.score.t of the first is lower: 1.171 for the first, 1.595 for the second.

First: CCCN1C[C@H](CSC)C[C@@H]2c3cccc4[nH]cc(c34)C[C@H]21 [Pergolide mesylate]
Second: O=C(C1CCCCC1)N1CC(=O)N2CCc3ccccc3C2C1 (stereo not shown) [Praziquantel]
The z.score.t of the first is higher: 0.1298 for the first, −0.5553 for the second.

Compared with C1CCC(C(CC2CCCCN2)C2CCCCC2)CC1 (stereo not shown) [Perhexiline maleate], CCC[C@H](N[C@@H](C)C(=O)N1[C@H](C(=O)O)C[C@@H]2CCCC[C@@H]21)C(=O)OCC [Perindopril] is higher in z.score.t: −1.682 for the first, 2.067 for the second.

Going from OCCN1CCN(CCCN2c3ccccc3Sc3ccc(Cl)cc32)CC1 [Perphenazine] to CC(=O)c1ccc2c(c1)N(CCCN1CCC(CCO)CC1)c1ccccc1S2 [Piperacetazine], the z.score.t rises from −1.746 to −1.148.

Going from Nc1ccc(/N=N/c2ccccc2)c(N)n1 [Phenazopyridine hydrochloride] to CN(C)CCC(c1ccccc1)c1ccccn1 (stereo not shown) [Pheniramine maleate], the z.score.t falls from 1.999 to −0.09426.

First: [H]/N=C(/N)N/C(=N/[H])NCCc1ccccc1 [Phenformin hydrochloride]
Second: CCCNC(C)C(=O)Nc1ccccc1C (stereo not shown) [Prilocaine hydrochloride]
The z.score.t of the first is lower: 0.9109 for the first, 1.984 for the second.

Going from CN1C(=O)CC(c2ccccc2)C1=O (stereo not shown) [Phensuximide] to CCC1(c2ccccc2)C(=O)NCNC1=O [Primidone], the z.score.t falls from 1.669 to 0.2582.

Going from O=C(O)c1ccccc1C(=O)Nc1ccc(S(=O)(=O)Nc2nccs2)cc1 [Phthalylsulfathiazole] to CN1C(C(=O)Nc2ccccn2)=C(O)c2ccccc2S1(=O)=O [Piroxicam], the z.score.t rises from −1.317 to −0.4161.

First: COc1ccc(C(=O)NCc2cccnc2)cc1C(=O)NCc1cccnc1 [Picotamide monohydrate]
Second: Cc1nc2ccccn2c(=O)c1CCN1CCC(C(=O)c2ccc(F)cc2)CC1 [Pirenperone]
The z.score.t of the first is higher: −0.04944 for the first, −0.07901 for the second.

Going from CN1CCC(=C2c3ccccc3Sc3ccccc32)CC1 [Pimethixene maleate] to CN1CCN(CC(=O)N2c3ccccc3C(=O)Nc3cccnc32)CC1 [Pirenzepine dihydrochloride], the z.score.t rises from −1.233 to −0.07933.

Compared with O=c1[nH]c2ccccc2n1C1CCN(CCCC(c2ccc(F)cc2)c2ccc(F)cc2)CC1 [Pimozide], CC[N+]1(C)CCCC(OC(=O)C(O)(c2ccccc2)c2ccccc2)C1 (stereo not shown) [Pipenzolate bromide] is higher in z.score.t: −1.173 for the first, 0.4318 for the second.

First: CC(N/C(=N\C#N)Nc1ccncc1)C(C)(C)C (stereo not shown) [Pinacidil]
Second: CC(=O)Nc1ccc(OCC(O)CNC(C)C)cc1 (stereo not shown) [Practolol]
The z.score.t of the first is higher: −0.03449 for the first, −0.3112 for the second.

Going from CCn1cc(C(=O)O)c(=O)c2cnc(N3CCNCC3)nc21 [Pipemidic acid] to CCn1cc(C(=O)O)c(=O)c2cnc(N3CCCC3)nc21 [Piromidic acid], the z.score.t rises from 0.4318 to 0.453.

Compared with O=C(/C=C/C=C/c1ccc2c(c1)OCO2)N1CCCCC1 [Piperine], NS(=O)(=O)c1cc(C(=O)O)cc(N2CCCC2)c1Oc1ccccc1 [Piretanide] is lower in z.score.t: −0.1003 for the first, −0.9376 for the second.

First: CC(C)(C)C(=O)OCOC(=O)[C@@H]1N2C(=O)[C@@H](NC(=O)[C@H](N)c3ccccc3)[C@H]2SC1(C)C [Pivampicillin]
Second: CCCC(C(=O)OCCN(CC)CC)(c1ccccc1)c1ccccc1 [Proadifen hydrochloride]
The z.score.t of the first is higher: −0.2187 for the first, −1.138 for the second.

First: COc1cc2nc(N3CCN(C(=O)c4ccco4)CC3)nc(N)c2cc1OC [Prazosin hydrochloride]
Second: COc1cc(NC(C)CCCN)c2ncccc2c1 (stereo not shown) [Primaquine diphosphate]
The z.score.t of the first is higher: −0.496 for the first, −1.784 for the second.

Going from C[C@]12C=CC(=O)C=C1CC[C@@H]1[C@@H]2[C@@H](O)C[C@@]2(C)[C@H]1CC[C@]2(O)C(=O)CO [Prednisolone] to C[C@]12C=CC(=O)C=C1CC[C@@H]1[C@@H]2C(=O)C[C@@]2(C)[C@H]1CC[C@]2(O)C(=O)CO [Prednisone], the z.score.t falls from 1.287 to −0.6093.
